“Also recorded” adds a separate entry of the source.
What was measured:
Assay type in all cases: cell-based, human
P-Akt = assay: Immunoblot of P-Akt expression in capan-1 cells; details: vehicle or 0.75 μM calcitriol 24 h, then varying concentrations of gemcitabine 24 h
Protocol: (§1) FIG. 4 is an immunoblot showing inhibition of survival signaling pathways in capan-1 by treatment with gemcitabine and 1,25D3. Capan-1 cells were treated 24 h with either vehicle or 0.75 μM calcitriol and then were treated with varying concentrations of gemcitabine for another 24 h. Cells were processed for immunoblotting to assess P-ErK1/2 and P-Akt expression. P-Erk1/2 was not affected by either agent alone or by the calcitriol/gemcitabine combination. […] For Western blot analysis, capan-1 cells were harvested and lysed in Triton-X100/SDS buffer as described previously ([…] et al., J. Biol. Chem. 276(33):30923-33 (2001), which is hereby incorporated by reference in its entirety). Proteins were transferred to PVDF membrane, and Western blots developed using Renaissance Enhanced Chemiluminescence Reagents (NEN Life Science Products, Boston, Mass.) or SuperSignal (Pierce, Rockford, Ill.).

P-Erk1/2 = assay: Immunoblot of P-Erk1/2 expression in capan-1 cells; details: vehicle or 0.75 μM calcitriol 24 h, then varying concentrations of gemcitabine 24 h
Protocol: as §1

caspase-8 = assay: Caspase-8 cleavage (Western blot) and activity (colorimetric assay) in capan-1 cells; details: vehicle or 0.75 μM calcitriol 24 h, then varying concentrations of gemcitabine
Protocol: (§2) FIG. 5 is a series of Western blots illustrating the effects of treatment with calcitriol and gemcitabine on caspase pathway induction in capan-1 cells. […] Cell lysates were prepared and analyzed by Western blot for caspase-3, caspase-6, caspase-8, and caspase-9. […] FIGS. 6A-D show quantitation of caspase-3, caspase-6, caspase-8, and caspase-9. Activity of caspase-3 (FIG. 6A), caspase-6 (FIG. 6B), caspase-8 (FIG. 6C), and caspase-9 (FIG. 6D) in capan-1 cells was measured by caspase-family colorimetric substrate assays, according to the manufacturer's protocol. Absorbance at 400 nm was determined, and the caspase activity was expressed as absorbance (ODU) per milligram of protein per reaction. […] Caspase activity was expressed as absorbance (O.D.) per milligram of protein per reaction. For Western blot analysis, capan-1 cells were harvested and lysed in Triton-X100/SDS buffer as described previously ([…] et al., J. Biol. Chem. 276(33):30923-33 (2001), which is hereby incorporated by reference in its entirety). Proteins were transferred to PVDF membrane, and Western blots developed using Renaissance Enhanced Chemiluminescence Reagents (NEN Life Science Products, Boston, Mass.) or SuperSignal (Pierce, Rockford, Ill.).

caspase-9 = assay: Caspase-9 cleavage (Western blot) and activity (colorimetric assay) in capan-1 cells; details: vehicle or 0.75 μM calcitriol 24 h, then varying concentrations of gemcitabine
Protocol: as §2

caspase-6 = assay: Caspase-6 cleavage (Western blot) and activity (colorimetric assay) in capan-1 cells; details: vehicle or 0.75 μM calcitriol 24 h, then varying concentrations of gemcitabine
Protocol: as §2

| Compound | P-Akt levels (P-Akt) | P-Erk1/2 expression (P-Erk1/2) | caspase-8 cleavage/activation (caspase-8) | caspase-9 cleavage/activation (caspase-9) | caspase-6 cleavage/activation (caspase-6) |
| --- | --- | --- | --- | --- | --- |
| C=C1/C(=C\C=C2/CCC[C@]3(C)[C@@H]([C@H](C)CCCC(C)(C)O)CC[C@@H]23)C[C@@H](O)C[C@@H]1O [calcitriol, 1,25-dihydroxycholecalciferol] | modestly reduced | not affected | not cleaved at detectable levels; also recorded: no change | not cleaved at detectable levels; also recorded: modestly increased | not cleaved at detectable levels |
| Nc1ccn([C@@H]2O[C@H](CO)[C@@H](O)C2(F)F)c(=O)n1 [gemcitabine] | little affected; also recorded: not affected | not affected | increase in the cleaved, activated form | no significant change; also recorded: modestly increased | – |

From patent US20060148752A1, “Method of treating soild tumors and leukemias using combination therapy of vitamin D and anti-metabolic nucleoside analogs” (priority 2004, published 2006)
